Experiment: Solubility, hygroscopicity and moisture sensitivity of AKST-4290 API
Type: physicochemical
Source text: Applicant has been able to prevent degradation utilizing the wax coating process described herein. This technique reduced the coating time and limited water uptake of core tablets improving impurity profile at T-0.
Specifically, the wax was applied as a sub-coat to the core tablets. In the case of AKST-4290, one of the purposes of this wax coat was to protect the API in the tablets from moisture. […] Although the relative humidity can be controlled during the upstream process of creating the tablet, this cannot be achieved in a coating process with aqueous solutions.

- Hygroscopicity of API (in words): highly hygroscopic
- Solubility of API (in words): highly soluble
SMILES: Cc1cc(C(=O)N(C)C)cc(NC(=O)[C@H]2CCC(=O)N2C2CCN(Cc3ccc(Cl)c(C)c3)CC2)n1 [AKST-4290]
- Stability on exposure to humidity (relative humidity over 40%, even for a couple of minutes): undergoes both physical and chemical changes

— patent US20240285539A1, “PROTECTIVE COATING FOR MOISTURE SENSITIVE PHARMACEUTICAL COMPOSITIONS” (R.P. Scherer Technologies, LLC, priority 2021, published 2024)
